Assay results: the supplement of paper PMC10307832

How the values were obtained:
Experiment in all cases: relative viability (nuclei count vs DMSO), 5 days (fraction); higher = more cells survive
A-427 = test system: A-427
In short: (§1)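 Lung cancer cell lines in 1536-well plates were dosed by pin tool the day after seeding, either with one drug alone or with a fixed anchor-drug dose plus five library-drug doses (not always all listed) in √10 steps. After 5 days, cells were fixed and their nuclei stained in one step (final 0.05% Triton X-100, 1% formaldehyde, 1 ug/ml Hoechst), then counted on 4× images. Relative viability is the nuclei count in treated wells divided by that in vehicle wells. Values are medians of duplicate plates.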

BEN = test system: BEN
In short: as §1

ChaGo-K-1 = test system: ChaGo-K-1
In short: as §1

EKVX = test system: EKVX
In short: as §1

LK-2 = test system: LK-2
In short: as §1

NCI-H1563 = test system: NCI-H1563
In short: as §1

NCI-H1650 = test system: NCI-H1650
In short: as §1

NCI-H1755 = test system: NCI-H1755
In short: as §1

NCI-H2085 = test system: NCI-H2085
In short: as §1

NCI-H2228 = test system: NCI-H2228
In short: as §1

NCI-H2347 = test system: NCI-H2347
In short: as §1

COCC1(CO)C(=O)C2CCN1CC2 (configuration not stated) [PRIMA-1MET] + N=C(N)NC(=N)NCCc1ccccc1 [Phenformin] (partner 250 µM)
relative viability (A-427; first compound 0.2 µM): 0.221 | relative viability (A-427; first compound 0.6325 µM): 0.294 | relative viability (A-427; first compound 2 µM): 0.304 | relative viability (A-427; first compound 6.325 µM): 0.281 | relative viability (A-427; first compound 20 µM): 0.133 | relative viability (BEN; first compound 0.2 µM): 0.268 | relative viability (BEN; first compound 0.6325 µM): 0.275 | relative viability (BEN; first compound 6.325 µM): 0.217 | relative viability (BEN; first compound 20 µM): 0.224 | relative viability (ChaGo-K-1; first compound 0.2 µM): 0.481 | relative viability (ChaGo-K-1; first compound 0.6325 µM): 0.439 | relative viability (ChaGo-K-1; first compound 2 µM): 0.514 | relative viability (ChaGo-K-1; first compound 6.325 µM): 0.503 | relative viability (ChaGo-K-1; first compound 20 µM): 0.459 | relative viability (EKVX; first compound 0.2 µM): 0.219 | relative viability (EKVX; first compound 0.6325 µM): 0.221 | relative viability (EKVX; first compound 6.325 µM): 0.217 | relative viability (EKVX; first compound 20 µM): 0.222 | relative viability (LK-2; first compound 0.2 µM): 0.45 | relative viability (LK-2; first compound 0.6325 µM): 0.41 | relative viability (LK-2; first compound 2 µM): 0.228 | relative viability (LK-2; first compound 6.325 µM): 0.14 | relative viability (LK-2; first compound 20 µM): 0.124 | relative viability (NCI-H1563; first compound 0.2 µM): 0.686 | relative viability (NCI-H1563; first compound 0.6325 µM): 0.673 | relative viability (NCI-H1563; first compound 2 µM): 0.668 | relative viability (NCI-H1563; first compound 6.325 µM): 0.719 | relative viability (NCI-H1563; first compound 20 µM): 0.302 | relative viability (NCI-H1650; first compound 0.2 µM): 0.569 | relative viability (NCI-H1650; first compound 0.6325 µM): 0.443 | relative viability (NCI-H1650; first compound 2 µM): 0.453 | relative viability (NCI-H1650; first compound 6.325 µM): 0.434 | relative viability (NCI-H1650; first compound 20 µM): 0.0427 | relative viability (NCI-H1755; first compound 0.2 µM): 0.613 | relative viability (NCI-H1755; first compound 0.6325 µM): 0.659 | relative viability (NCI-H1755; first compound 2 µM): 0.406 | relative viability (NCI-H1755; first compound 6.325 µM): 0.635 | relative viability (NCI-H1755; first compound 20 µM): 0.574 | relative viability (NCI-H2085; first compound 0.2 µM): 0.727 | relative viability (NCI-H2085; first compound 0.6325 µM): 0.62 | relative viability (NCI-H2085; first compound 2 µM): 0.432 | relative viability (NCI-H2085; first compound 6.325 µM): 0.449 | relative viability (NCI-H2085; first compound 20 µM): 0.272 | relative viability (NCI-H2228; first compound 0.2 µM): 0.41 | relative viability (NCI-H2228; first compound 0.6325 µM): 0.278 | relative viability (NCI-H2228; first compound 2 µM): 0.336 | relative viability (NCI-H2228; first compound 6.325 µM): 0.213 | relative viability (NCI-H2228; first compound 20 µM): 0.0266 | relative viability (NCI-H2347; first compound 0.2 µM): 0.265 | relative viability (NCI-H2347; first compound 0.6325 µM): 0.366 | relative viability (NCI-H2347; first compound 2 µM): 0.231 | relative viability (NCI-H2347; first compound 6.325 µM): 0.28
